Assays:
[1] = mouse, in vivo, sc, 0.01 mg/kg, 0.5 h
in vivo [2] = details: C57BL/6, mouse, brain/plasma, sc, 0.01 mg/kg
in vivo [3] = details: C57BL/6, mouse, plasma, sc, 0.01 mg/kg
[4] = Ratio of drug level in brain to plasma in C57BL/6 mouse at 0.03 mg/kg, sc after 30 mins; format: ADME, organism-based; details: read-out: BPR
[5] = Plasma concentration in C57BL/6 mouse at 0.03 mg/kg, sc after 30 mins; format: ADME, organism-based
[6] = Fraction unbound in C57BL/6 mouse plasma at 0.03 mg/kg, sc after 30 mins; format: ADME, organism-based; details: in vivo, 0.5 h

Structure (SMILES)	Cp(f) [1]	Kp at 0.5 h (in vivo [2])	concentration at 0.5 h (in vivo [3])	Kp at 0.5 h [4]	concentration at 0.5 h [5]	Cp(f) [6]
Brc1ccc2c(NC3=NC[C@@]4(CN5CCC4CC5)O3)ncnn12	50 to 75%	4.9	7 nM	–	–	–
Clc1ccc2c(NC3=NC[C@@]4(CN5CCC4CC5)O3)ncnn12	–	–	–	1.9	18 nM	50 to 75%
